# Reference: patent US20230036854A1, “HETEROCYCLIC SPIRO-COMPOUNDS AS AM2 RECEPTOR INHIBITORS” (THE UNIVERSITY OF SHEFFIELD, priority 2018, published 2023)
# Target: T1, AM2 receptor (1321N1 cells transfected with CALCRL+RAMP3) (Homo sapiens, UniProt O60896+Q16602)
# T1 construct: host or cells: 1321N1 cells
# Experiment: AM2 receptor inhibition, LANCE cAMP agonist-antagonist competition assay
# Format: cell-based
# Details: inhibition of AM induced cAMP activation, read-out: AM2 D2 protocol: pIC50 (converted)
# Protocol: Compounds were assessed for their ability to inhibit ligand-induced elevations of cAMP, using the Perkin Elmer LANCE cAMP assay using commercially-available cells expressing a specific receptor of interest using the following general procedure:
# Compounds were prepared in dimethyl sulfoxide (DMSO—99.9% pure) (Sigma Aldrich, Cat #: D4540) added to powder stocks to produce a 20 mM solution (100% DMSO) that was sonicated at 37° C. for 10 minutes to fully dissolve the compounds. The 20 mM stocks were diluted further in DMSO to produce a 2 mM solution that was sonicated at 37° C. for 10 minutes. 2 mM stocks were dissolved in assay/stimulation buffer to produce a 400 μM solution that was sonicated at 37° C. for 10 minutes for all cAMP assays. All stocks were stored at −20° C. Then serial dilution (Dilution factor: 10) was performed to achieve the desire experimental concentrations.
# Competition assays were performed according to the manufactures instructions using LANCE® TR-FRET cAMP assay kit (Perkin Elmer, Cat #: AD0264). Serial dilutions (3 μl/well) of the molecules were plated in a 384-well OptiPlate (Perkin Elmer, Cat #: 6007299) in duplicates. Appropriate controls (100% stimulation: Forskolin and 0% stimulation: Vehicle control) (6 μl/well) were included in each plate for data normalization. Following the compound addition, 6 μl of G-protein coupled receptor overexpressing cells/Alexa Fluor antibody solution (1:100 dilution) was added in each well at a desired density of 2500cells/well. The overexpressing cell lines were purchased from DiscoveRx, Birmingham, UK. After spinning the plate at 1000 rpm for 1 minute and vortexing briefly, the cells were pre-incubated with the compounds for 30 minutes at room temperature (covered). Then 3 μl of the equivalent peptide ligand (EC50 dose) was added to all the wells except vehicle and forskolin controls. The plate were then spun down at 1000 rpm for 1 minute and once finished they were vortexed briefly and covered. Cells were stimulated in the presence of the ligands for 15 minutes at room temperature. After stimulation 12 μl of detection mix (Europium-Chelate streptavidin/biotinylated cAMP tracer solution) was added to all wells and incubated for 60 minutes at room temperature. The plate was then read on the Enspire multimode Plate reader (Perkin Elmer), at; 320/340 nm excitation and 615/665 nm emission was recorded.
# Assay/Stimulation Buffer (30 mL)—pH 7.4 • 28 mL Hank's Balanced salt solution (+MgCl2, +CaCl2)—(Thermo Fisher Cat #:14170112) • 150 μl HEPES (1M)—(Thermo Fisher Cat #:15630080) • 400 μl Stabilizer (DTPA) Purified BSA (7.5%)—(Perkin Elmer, Cat #: CR84-100)
# The ability of a compound to inhibit the AM induced cAMP activation in AM2 receptor-expressing cells (1321N1 cells transfected with CALCRL+RAMP3, sourced from DiscoverX catalogue number 95-0169C6) was assessed using the protocol above.
# T1 sequence (Q16602 23-461): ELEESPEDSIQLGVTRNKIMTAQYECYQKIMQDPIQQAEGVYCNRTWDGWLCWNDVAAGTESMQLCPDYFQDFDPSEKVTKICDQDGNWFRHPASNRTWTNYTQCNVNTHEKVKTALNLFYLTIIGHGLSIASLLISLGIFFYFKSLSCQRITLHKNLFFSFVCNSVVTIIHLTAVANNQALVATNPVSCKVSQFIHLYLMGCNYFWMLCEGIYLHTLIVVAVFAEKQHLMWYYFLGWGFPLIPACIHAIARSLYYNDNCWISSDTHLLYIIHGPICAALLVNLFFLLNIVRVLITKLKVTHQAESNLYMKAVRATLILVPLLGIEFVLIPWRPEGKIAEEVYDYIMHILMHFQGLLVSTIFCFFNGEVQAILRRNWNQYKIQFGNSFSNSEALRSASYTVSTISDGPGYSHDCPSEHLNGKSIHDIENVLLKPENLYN
# T1 sequence (O60896 24-148): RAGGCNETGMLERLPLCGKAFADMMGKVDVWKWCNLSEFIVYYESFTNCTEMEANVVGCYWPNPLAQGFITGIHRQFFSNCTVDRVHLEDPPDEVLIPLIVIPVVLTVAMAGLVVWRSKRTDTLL
row,SMILES,IC50 [nM]
1,"CNCc1ccccc1CN(CC(=O)Nc1ccc2c(c1)CC1(C2)C(=O)Nc2ncccc21)C(=O)C1(C)CCN(C(C)=O)CC1 (centres unmarked) [Example 1, 1-Acetyl-4-methyl-N-(2-((methylamino)methyl)benzyl)-N-(2-oxo-2-((2′-oxo-1,1′,2′,3-tetrahydrospiro[indene-2,3′-pyrrolo[2,3-b]pyridin]-5-yl)amino)ethyl)piperidine-4-carboxamide 2,2,2-trifluoroacetate]",2.57
2,"CNCc1ccccc1CN(CC(=O)Nc1ccc2c(c1)CC1(C2)C(=O)Nc2ncccc21)C(=O)C1(C)CCNCC1 (centres unmarked) [Example 2, 4-Methyl-N-(2-((methylamino)methyl)benzyl)-N-(2-oxo-2-((2′-oxo-1,1′,2′,3-tetrahydrospiro[indene-2,3′-pyrrolo[2,3-b]pyridin]-5-yl)amino)ethyl)piperidine-4-carboxamide bis(2,2,2-trifluoroacetate)]",3.39
3,"CNCc1ccccc1CN(CC(=O)Nc1ccc2c(c1)C[C@@]1(C2)C(=O)Nc2ncccc21)C(=O)C1(C)CCNCC1 [Example 3, (R)-4-Methyl-N-(2-((methylamino)methyl)benzyl)-N-(2-oxo-2-((2′-oxo-1,1′,2′,3-tetrahydrospiro[indene-2,3′-pyrrolo[2,3-b]pyridin]-5-yl)amino)ethyl)piperidine-4-carboxamide]",7.76
4,"CNCc1ccccc1CN(CC(=O)Nc1ccc2c(c1)CC1(C2)C(=O)Nc2ncccc21)C(=O)C1(C)CCN(C(=O)c2ccccc2)CC1 (centres unmarked) [Example 4, 1-Benzoyl-4-methyl-N-(2-((methylamino)methyl)benzyl)-N-(2-oxo-2-((2′-oxo-1,1′,2′,3-tetrahydrospiro[indene-2,3′-pyrrolo[2,3-b]pyridin]-5-yl)amino)ethyl)piperidine-4-carboxamide]",2.19
5,"CNCc1ccccc1CN(CC(=O)Nc1ccc2c(c1)CC1(C2)C(=O)Nc2ncccc21)C(=O)C1(C)CCN(C(=O)C2CCC2)CC1 (centres unmarked) [Example 5, 1-(Cyclobutanecarbonyl)-4-methyl-N-(2-((methylamino)methyl)benzyl)-N-(2-oxo-2-((2′-oxo-1,1′,2′,3-tetrahydrospiro[indene-2,3′-pyrrolo[2,3-b]pyridin]-5-yl)amino)ethyl)piperidine-4-carboxamide]",1.48
6,"CNCc1ccccc1CN(CC(=O)Nc1ccc2c(c1)CC1(C2)C(=O)Nc2ncccc21)C(=O)C1(C)CCN(C(=O)c2ccncc2)CC1 (centres unmarked) [Example 6, 1-Isonicotinoyl-4-methyl-N-(2-((methylamino)methyl)benzyl)-N-(2-oxo-2-((2′-oxo-1,1′,2′,3-tetrahydrospiro[indene-2,3′-pyrrolo[2,3-b]pyridin]-5-yl)amino)ethyl)piperidine-4-carboxamide]",2.29
7,"CNCc1ccccc1CN(CC(=O)Nc1ccc2c(c1)C[C@@]1(C2)C(=O)Nc2ncccc21)C(=O)C1(C)CCN(C(=O)CC2CCNCC2)CC1 [Example 7, (R)-4-Methyl-N-(2-((methylamino)methyl)benzyl)-N-(2-oxo-2-((2′-oxo-1,1′,2′,3-tetrahydrospiro[indene-2,3′-pyrrolo[2,3-b]pyridin]-5-yl)amino)ethyl)-1-(2-(piperidin-4-yl)acetyl)piperidine-4-carboxamide]",4.07
8,"CNCc1ccccc1CN(CC(=O)Nc1ccc2c(c1)C[C@@]1(C2)C(=O)Nc2ncccc21)C(=O)C1(C)CCN(C(=O)C[C@@H]2CCNC2)CC1 [Example 8, 4-Methyl-N-(2-((methylamino)methyl)benzyl)-N-(2-oxo-2-(((R)-2′-oxo-1,1′,2′,3-tetrahydrospiro[indene-2,3′-pyrrolo[2,3-b]pyridin]-5-yl)amino)ethyl)-1-(2-((S)-pyrrolidin-3-yl)acetyl)piperidine-4-carboxamide]",18.2
9,"CNCc1ccccc1CN(CC(=O)Nc1ccc2c(c1)C[C@@]1(C2)C(=O)Nc2ncccc21)C(=O)C1(C)CCN(C(=O)C2CCNCC2)CC1 [Example 9, (R)-4-Methyl-N-(2-((methylamino)methyl)benzyl)-N-(2-oxo-2-((2′-oxo-1,1′,2′,3-tetrahydrospiro[indene-2,3′-pyrrolo[2,3-b]pyridin]-5-yl)amino)ethyl)-1-(piperidine-4-carbonyl)piperidine-4-carboxamide]",5.13
10,"CNCc1ccccc1CN(CC(=O)Nc1ccc2c(c1)C[C@@]1(C2)C(=O)Nc2ncccc21)C(=O)C1(C)CCN(C(=O)c2cccc(N)n2)CC1 [Example 10, (R)-1-(6-Aminopicolinoyl)-4-methyl-N-(2-((methylamino)methyl)benzyl)-N-(2-oxo-2-((2′-oxo-1,1′,2′,3-tetrahydrospiro[indene-2,3′-pyrrolo[2,3-b]pyridin]-5-yl)amino)ethyl)piperidine-4-carboxamide]",8.91
11,"CNCc1ccccc1CN(CC(=O)Nc1ccc2c(c1)C[C@@]1(C2)C(=O)Nc2ncccc21)C(=O)C1(C)CCN(C(=O)C[C@H]2CCNC2)CC1 [Example 11, 4-Methyl-N-(2-((methylamino)methyl)benzyl)-N-(2-oxo-2-(((R)-2′-oxo-1,1′,2′,3-tetrahydrospiro[indene-2,3′-pyrrolo[2,3-b]pyridin]-5-yl)amino)ethyl)-1-(2-((R)-pyrrolidin-3-yl)acetyl)piperidine-4-carboxamide]",6.46
12,"CNCc1ccccc1CN(CC(=O)Nc1ccc2c(c1)C[C@@]1(C2)C(=O)Nc2ncccc21)C(=O)C1(C)CCN(C(=O)C2CCN(C(C)=O)CC2)CC1 [Example 12, (R)-1-(1-Acetylpiperidine-4-carbonyl)-4-methyl-N-(2-((methylamino)methyl)benzyl)-N-(2-oxo-2-((2′-oxo-1,1′,2′,3-tetrahydrospiro[indene-2,3′-pyrrolo[2,3-b]pyridin]-5-yl)amino)ethyl)piperidine-4-carboxamide]",9.12
13,"CNCc1ccccc1CN(CC(=O)Nc1ccc2c(c1)C[C@@]1(C2)C(=O)Nc2ncccc21)C(=O)C1(C)CCN(C(=O)Cc2ccncc2)CC1 [Example 13, (R)-4-Methyl-N-(2-((methylamino)methyl)benzyl)-N-(2-oxo-2-((2′-oxo-1,1′,2′,3-tetrahydrospiro[indene-2,3′-pyrrolo[2,3-b]pyridin]-5-yl)amino)ethyl)-1-(2-(pyridin-4-yl)acetyl)piperidine-4-carboxamide]",15.5
14,"CNCc1ccccc1CN(CC(=O)Nc1ccc2c(c1)CC1(C2)C(=O)Nc2ncccc21)C(=O)C1(C)CCN(C(=O)c2cccnc2)CC1 (centres unmarked) [Example 14, 4-Methyl-N-(2-((methylamino)methyl)benzyl)-1-nicotinoyl-N-(2-oxo-2-((2′-oxo-1,1′,2′,3-tetrahydrospiro[indene-2,3′-pyrrolo[2,3-b]pyridin]-5-yl)amino)ethyl)piperidine-4-carboxamide]",2
15,"CNCc1ccccc1CN(CC(=O)Nc1ccc2c(c1)CC1(C2)C(=O)Nc2ncccc21)C(=O)C1(C)CCN(C(=O)c2ccccn2)CC1 (centres unmarked) [Example 15, 4-Methyl-N-(2-((methylamino)methyl)benzyl)-N-(2-oxo-2-((2′-oxo-1,1′,2′,3-tetrahydrospiro[indene-2,3′-pyrrolo[2,3-b]pyridin]-5-yl)amino)ethyl)-1-picolinoylpiperidine-4-carboxamide]",0.759
16,"CNCc1ccccc1CN(CC(=O)Nc1ccc2c(c1)C[C@@]1(C2)C(=O)Nc2ncccc21)C(=O)C1(C)CCN(C(=O)C(C)C)CC1 [Example 16, (R)-1-Isobutyryl-4-methyl-N-(2-((methylamino)methyl)benzyl)-N-(2-oxo-2-((2′-oxo-1,1′,2′,3-tetrahydrospiro[indene-2,3′-pyrrolo[2,3-b]pyridin]-5-yl)amino)ethyl)piperidine-4-carboxamide]",3.24
17,"CNCc1ccccc1CN(CC(=O)Nc1ccc2c(c1)C[C@@]1(C2)C(=O)Nc2ncccc21)C(=O)C1(C)CCN(C(=O)C(F)F)CC1 [Example 17, (R)-1-(2,2-Difluoroacetyl)-4-methyl-N-(2-((methylamino)methyl)benzyl)-N-(2-oxo-2-((2′-oxo-1,1′,2′,3-tetrahydrospiro[indene-2,3′-pyrrolo[2,3-b]pyridin]-5-yl)amino)ethyl)piperidine-4-carboxamide]",8.32
